Our source for the IC50 values is US20240327412A1, “FACTOR XIIA INHIBITORS” (KALVISTA PHARMACEUTICALS LIMITED, priority 2021, published 2024).

SMILES strings stand for the structures.

This experiment addresses T1, Human Factor XIIa (Homo sapiens, UniProt P00748).
T1 construct: Proteolytic cleavage of FXII to heavy and light chains of FXIIa dramatically increases catalytic activity; purchased Enzyme Research Laboratories
T1 sequence (P00748 373-615 limits assumed): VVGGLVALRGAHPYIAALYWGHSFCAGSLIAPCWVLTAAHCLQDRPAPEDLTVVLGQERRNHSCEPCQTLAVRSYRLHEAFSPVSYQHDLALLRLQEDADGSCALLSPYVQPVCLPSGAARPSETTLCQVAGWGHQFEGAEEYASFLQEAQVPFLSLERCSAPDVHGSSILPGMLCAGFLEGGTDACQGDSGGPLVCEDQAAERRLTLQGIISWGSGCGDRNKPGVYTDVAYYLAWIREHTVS
T1 sequence (P00748 20-372 partner limits assumed): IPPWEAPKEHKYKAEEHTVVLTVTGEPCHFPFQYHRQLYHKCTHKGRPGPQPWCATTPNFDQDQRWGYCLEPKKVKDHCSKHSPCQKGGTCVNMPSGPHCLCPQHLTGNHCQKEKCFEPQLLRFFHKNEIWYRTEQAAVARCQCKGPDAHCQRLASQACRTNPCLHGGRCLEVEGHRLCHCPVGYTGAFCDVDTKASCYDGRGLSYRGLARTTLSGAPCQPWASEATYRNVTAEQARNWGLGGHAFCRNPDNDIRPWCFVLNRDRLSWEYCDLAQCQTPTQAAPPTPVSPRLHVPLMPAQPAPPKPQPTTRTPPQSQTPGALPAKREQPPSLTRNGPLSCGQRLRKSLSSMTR
As to the kind of experiment: Determination of FXIIa inhibition (fluorogenic substrate H-DPro-Phe-Arg-AFC, IC50 assay). As to conditions: substrate at Km concentration, 25° C.; category scale; read-out: Human FXII IC50 (nm). Type of experiment: biochemical. In a few lines:
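Human FXIIa incubated at 25° C. with fluorogenic H-DPro-Phe-Arg-AFC at its Km concentration plus varying compound levels. Linear fluorescence increase over 5 min taken as % activity; IC50 is concentration halving uninhibited activity.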
With `Cn1ccc(OCC23CN(C(=O)OCc4ccc(F)c(F)c4)C(CNc4cccc5c(N)nccc45)(C2)C3)cc1=O` [Example 12020, 3,4-difluorobenzyl 1-(((1-aminoisoquinolin-5-yl)amino)methyl)-4-(((1-methyl-2-oxo-1,2-dihydropyridin-4-yl)oxy)methyl)-2-azabicyclo[2.1.1]hexane-2-carboxylate], the half-inhibitory concentration (IC50) (as a rule, the point on the concentration scale where inhibition reaches its midpoint) was in the range of 100 to 300 nM.

As for `Cn1ccc(OCC23CN(C(=O)OCc4ccccn4)C(CNc4cccc5c(N)nccc45)(C2)C3)cc1=O` [Example 12021, pyridin-2-ylmethyl 1-(((1-aminoisoquinolin-5-yl)amino)methyl)-4-(((1-methyl-2-oxo-1,2-dihydropyridin-4-yl)oxy)methyl)-2-azabicyclo[2.1.1]hexane-2-carboxylate], the IC50 was 10 to 100 nM.

For the compound `Cn1ccc(OCC23CN(C(=O)OCc4cccnc4)C(CNc4cccc5c(N)nccc45)(C2)C3)cc1=O` [Example 12022, pyridin-3-ylmethyl 1-(((1-aminoisoquinolin-5-yl)amino)methyl)-4-(((1-methyl-2-oxo-1,2-dihydropyridin-4-yl)oxy)methyl)-2-azabicyclo[2.1.1]hexane-2-carboxylate], the IC50 was 10 to 100 nM.

For the compound `Cn1ccc(OCC23CN(C(=O)OCc4ccccc4Cl)C(CNc4cccc5c(N)nccc45)(C2)C3)cc1=O` [Example 12023, 2-chlorobenzyl 1-(((1-aminoisoquinolin-5-yl)amino)methyl)-4-(((1-methyl-2-oxo-1,2-dihydropyridin-4-yl)oxy)methyl)-2-azabicyclo[2.1.1]hexane-2-carboxylate], the IC50 fell in the range of 10 to 100 nM.

Regarding `Cn1ccc(OCC23CN(C(=O)OCc4ccc5ccccc5c4)C(CNc4cccc5c(N)nccc45)(C2)C3)cc1=O` [Example 12024, naphthalen-2-ylmethyl 1-(((1-aminoisoquinolin-5-yl)amino)methyl)-4-(((1-methyl-2-oxo-1,2-dihydropyridin-4-yl)oxy)methyl)-2-azabicyclo[2.1.1]hexane-2-carboxylate], the half-inhibitory concentration (IC50) lay in the range of 100 to 300 nM.

With `Cn1ccc(OCC23CN(C(=O)OCc4ccccc4)C(CNc4ccnc5[nH]c(Cl)cc45)(C2)C3)cc1=O` [Example 12025, benzyl 1-(((2-chloro-1H-pyrrolo[2,3-b]pyridin-4-yl)amino)methyl)-4-(((1-methyl-2-oxo-1,2-dihydropyridin-4-yl)oxy)methyl)-2-azabicyclo[2.1.1]hexane-2-carboxylate], the half-maximal inhibitory concentration (IC50) lay in the range of 1000 to 3000 nM.

For the compound `Cn1cc(COC(=O)N2CC3(COc4ccn(C)c(=O)c4)CC2(CNc2cccc4c(N)nccc24)C3)cn1` [Example 12026, (1-methyl-1H-pyrazol-4-yl)methyl 1-(((1-aminoisoquinolin-5-yl)amino)methyl)-4-(((1-methyl-2-oxo-1,2-dihydropyridin-4-yl)oxy)methyl)-2-azabicyclo[2.1.1]hexane-2-carboxylate], the IC50 was in the range of 100 to 300 nM.

On to `Cn1ccc(OCC23CN(C(=O)OC(C)(C)C)C(CNc4cccc5c(N)nccc45)(C2)C3)cc1=O` [Example 12027, tert-butyl 1-(((1-aminoisoquinolin-5-yl)amino)methyl)-4-(((1-methyl-2-oxo-1,2-dihydropyridin-4-yl)oxy)methyl)-2-azabicyclo[2.1.1]hexane-2-carboxylate], for which the half-inhibitory concentration (IC50) lay within 100 to 300 nM.

Turning to `Cn1ccc(OCC23CN(C(=O)Cc4ccccc4)C(CNc4cccc5c(N)nccc45)(C2)C3)cc1=O` [Example 12028, 4-((1-(((1-aminoisoquinolin-5-yl)amino)methyl)-2-(2-phenylacetyl)-2-azabicyclo[2.1.1]hexan-4-yl)methoxy)-1-methylpyridin-2(1H)-one], the half-inhibitory concentration (IC50) was 10 to 100 nM.

Take `Cn1ccc(OCC23CN(c4nccc(-c5ccccc5)n4)C(CNc4cccc5c(N)nccc45)(C2)C3)cc1=O` [Example 12031, 4-((1-(((1-aminoisoquinolin-5-yl)amino)methyl)-2-(4-phenylpyrimidin-2-yl)-2-azabicyclo[2.1.1]hexan-4-yl)methoxy)-1-methylpyridin-2(1H)-one]: the IC50 was in the range of 100 to 300 nM.

On to `Cn1ccc(OCC23CN(C(=O)Cc4ccc5occc5c4)C(CNc4cccc5c(N)nccc45)(C2)C3)cc1=O` [Example 12034, 4-((1-(((1-Aminoisoquinolin-5-yl)amino)methyl)-2-(2-(benzofuran-5-yl)acetyl)-2-azabicyclo[2.1.1]hexan-4-yl)methoxy)-1-methylpyridin-2(1H)-one], for which the half-inhibitory concentration (IC50) fell in the range of 10 to 100 nM.

Consider `Cn1ccc(OCC23CN(C(=O)c4ccccc4)C(CNc4cccc5c(N)nccc45)(C2)C3)cc1=O` [Example 12035, 4-((1-(((1-aminoisoquinolin-5-yl)amino)methyl)-2-benzoyl-2-azabicyclo[2.1.1]hexan-4-yl)methoxy)-1-methylpyridin-2(1H)-one], for which the IC50 lay in the range of 10 to 100 nM.

With `Cc1cc(OCC23CN(C(=O)Cc4ccccc4)C(CNc4cccc5c(N)nccc45)(C2)C3)cc(=O)n1C` [Example 12039, 4-((1-(((1-aminoisoquinolin-5-yl)amino)methyl)-2-(2-phenylacetyl)-2-azabicyclo[2.1.1]hexan-4-yl)methoxy)-1,6-dimethylpyridin-2(1H)-one], the half-maximal inhibitory concentration (IC50) lay within 10 to 100 nM.

On to `Cn1ccc(OCC23CN(C(=O)Cc4cccc5[nH]ccc45)C(CNc4cccc5c(N)nccc45)(C2)C3)cc1=O` [Example 12040, 4-((2-(2-(1H-indol-4-yl)acetyl)-1-(((1-aminoisoquinolin-5-yl)amino)methyl)-2-azabicyclo[2.1.1]hexan-4-yl)methoxy)-1-methylpyridin-2(1H)-one], for which the IC50 is 10 to 100 nM.

For the compound `CN(Cc1ccccc1)C(=O)N1CC2(COc3ccn(C)c(=O)c3)CC1(CNc1cccc3c(N)nccc13)C2` [Example 12041, 1-[[(1-Amino-5-isoquinolyl)amino]methyl]-N-benzyl-N-methyl-4-[(1-methyl-2-oxo-4-pyridyl)oxymethyl]-2-azabicyclo[2.1.1]hexane-2-carboxamide], the 50% inhibitory concentration (IC50) was in the range of 1 to 10 nM.

For `COc1cccc(CCC(=O)N2CC3(COc4ccn(C)c(=O)c4)CC2(CNc2cccc4c(N)nccc24)C3)c1` [Example 12042, 4-((1-(((1-aminoisoquinolin-5-yl)amino)methyl)-2-(3-(3-methoxyphenyl)propanoyl)-2-azabicyclo[2.1.1]hexan-4-yl)methoxy)-1-methylpyridin-2(1H)-one], the IC50 lay within 10 to 100 nM.

With `Cn1ccc(OCC23CN(C(=O)CCc4cccc(C#N)c4)C(CNc4cccc5c(N)nccc45)(C2)C3)cc1=O` [Example 12044, 3-(3-(1-(((1-aminoisoquinolin-5-yl)amino)methyl)-4-(((1-methyl-2-oxo-1,2-dihydropyridin-4-yl)oxy)methyl)-2-azabicyclo[2.1.1]hexan-2-yl)-3-oxopropyl)benzonitrile], the IC50 is 10 to 100 nM.

`Cn1ccc(OCC23CN(C(=O)OC(C)(C)C)C(CNc4ccc5cnccc5c4)(C2)C3)cc1=O` [Example 12045, tert-butyl 1-((isoquinolin-6-ylamino)methyl)-4-(((1-methyl-2-oxo-1,2-dihydropyridin-4-yl)oxy)methyl)-2-azabicyclo[2.1.1]hexane-2-carboxylate]: the IC50 was 10000 to 40000 nM.

On to `Cn1ccc(OCC23CN(C(=O)CCc4cccc5cnccc45)C(CNc4cccc5c(N)nccc45)(C2)C3)cc1=O` [Example 12047, 4-((1-(((1-aminoisoquinolin-5-yl)amino)methyl)-2-(3-(isoquinolin-5-yl)propanoyl)-2-azabicyclo[2.1.1]hexan-4-yl)methoxy)-1-methylpyridin-2(1H)-one], for which the IC50 was in the range of 10 to 100 nM.

Regarding `Cn1ccc(OCC23CN(C(=O)CCc4cccc(C(F)F)c4)C(CNc4cccc5c(N)nccc45)(C2)C3)cc1=O` [Example 12048, 4-((1-(((1-aminoisoquinolin-5-yl)amino)methyl)-2-(3-(3-(difluoromethyl)phenyl)propanoyl)-2-azabicyclo[2.1.1]hexan-4-yl)methoxy)-1-methylpyridin-2(1H)-one], the IC50 was 10 to 100 nM.

`Cn1ccc(OCC23CN(C(=O)CCc4cccc(Cl)c4)C(CNc4cccc5c(N)nccc45)(C2)C3)cc1=O` [Example 12049, 4-((1-(((1-aminoisoquinolin-5-yl)amino)methyl)-2-(3-(3-chlorophenyl)propanoyl)-2-azabicyclo[2.1.1]hexan-4-yl)methoxy)-1-methylpyridin-2(1H)-one]: the IC50 fell in the range of 10 to 100 nM.

As for `Cn1ccc(OCC23CN(C(=O)CCc4cccc(C(F)(F)F)c4)C(CNc4cccc5c(N)nccc45)(C2)C3)cc1=O` [Example 12050, 4-((1-(((1-aminoisoquinolin-5-yl)amino)methyl)-2-(3-(3-(trifluoromethyl)phenyl)propanoyl)-2-azabicyclo[2.1.1]hexan-4-yl)methoxy)-1-methylpyridin-2(1H)-one], the IC50 is 10 to 100 nM.

For `Cn1ccc(OCC23CN(C(=O)CCc4cccc(C(=O)O)c4)C(CNc4cccc5c(N)nccc45)(C2)C3)cc1=O` [Example 12051, 3-(3-(1-(((1-aminoisoquinolin-5-yl)amino)methyl)-4-(((1-methyl-2-oxo-1,2-dihydropyridin-4-yl)oxy)methyl)-2-azabicyclo[2.1.1]hexan-2-yl)-3-oxopropyl)benzoic acid], the IC50 was in the range of 10 to 100 nM.
